From publication PMC4115230, “Lipid–Protein Nanodiscs Offer New Perspectives for Structural and Functional Studies of Water-Soluble Membrane-Active Peptides” (Acta Naturae, 2014)
Entries after “also recorded” stand apart in the source; their conditions may differ. Where no end group is shown, it is not given here.

How the values were obtained:
[1] = Mean Kyte-Doolittle hydrophobicity index; conditions: among the three studied peptides
From the text: The problems related to the application of LPNbased membrane mimetic media in structural and biophysical studies of water-soluble MPs have yet to be studied. It should be noted that this is far from being a trivial matter, since LPNs, unlike vesicles, bicelles, and micelles, contain an additional component, MSP, which is an anionic protein (charge of –6). In this paper, the interaction of water-soluble MPs with LPNs was studied using three model cationic β-structured peptides (Fig. 1), which have different physicochemical properties and represent three classes of membrane-active compounds. The antimicrobial peptide arenicin-2 (Ar2, 21 AA, 2772 Da, charge of +6, mean Kyte-Doolittle hydrophobicity index is –0.06, The maximum and minimum values of the Kyte-Doolittle hydrophobicity index are +4.5 and –4.5 for poly-Ile and poly-Arg sequences, respectively.) from coelomocytes of the polychaete lugworm Arenicola marina interacts selectively with membranes containing negatively charged lipid molecules and forms oligomeric pores in them. The VSTx1 toxin (34 AA, 4010 Da, charge of +3, hydrophobicity index is –0.27) from Grammostola spatulata spider venom uses the “membrane catalysis” mechanism to interact with the voltage-sensitive domains of K+-channels localized in the cell membrane, and it lacks pore-forming ability. […]

[2] = CD spectroscopy; ref [18], [21]; cited from earlier work
LPNs [3] = assay: Gel filtration analysis of LPNs after peptide addition (nanodisc integrity, particle size); assay type: physicochemical; conditions: for nanodisc disruption: 1 mM EDTA, pH 7.4, 280 nm
Description: was carried out on a Superdex-200 resin using a Tricorn 5/200 column (GE Healthcare, Sweden) in buffer (10 mM Tris-HCl, 0.1 M NaCl, 1 mM EDTA, 1 mM NaN3, pH 7.4). Thyroglobulin (669 kDa, Stokes radius RH = 8.5 nm), ferritin (440 kDa, RH = 6.1 nm), catalase (232 kDa, RH = 5.22 nm), aldolase (158 kDa, RH = 4.81 nm) BSA (67 kDa, RH = 3.55 nm), and ovalbumin (43 kDa, RH = 3.05 nm) were used as calibration proteins. The flow rate through the column was 0.3 ml/min. Detection was performed at 280 nm. The particle size was determined from the elution volume vs the lgRH calibration curve. All the particle size (diameter) values provided below correspond to twice RH values. ;

LPNs [4] = assay: Opalescence/opacity of LPN solutions on Ar2 addition; assay type: physicochemical
Description: During that study, an aqueous Ar2 solution was added to nanodisc samples. […] An analysis of the sample supernatants by gel filtration confirmed this assumption. […] A similar process is known as high-density lipoprotein remodeling, which can occur both in vitro and in vivo upon the interaction of lipoprotein particles with lipophilic plasma proteins. Previously, nanodisc fusion had been observed in cell-free protein biosynthesis systems with the cotranslational incorporation of membrane proteins into LPNs containing unsaturated lipids. The spontaneous LPN fusion in vitro proceeds very slowly, but it could be considerably accelerated under denaturing conditions.

[5] = cited from earlier work
From the text: The cationic AMP, Ar2, contains mainly positively charged and hydrophobic residues and has a β-hairpin structure in water, which is stabilized with one disulfide bond (Fig. 1). […] As expected, the β-hairpins of individual peptides within the pore have a transmembrane orientation, so that the ...

[6] = CD spectroscopy; ref [18], [21]; cited from earlier work; remark: listed apart in the source
[7] = ref [12], [15], [20]; cited from earlier work
From the text: (§1) Given that the mechanisms associated with the change in the local curvature of the lipid bilayer (“toroidal” pore formation, bilayer micellization) underlie the action of the overwhelming majority of water- soluble cationic AMPs, we can assume that many of these molecules will have a destructive effect on LPNs. Thus, nanodiscs are probably not suited as a medium for studying these peptides. It should be noted that there are other classes of channel- and pore-forming biomolecules that can be studied in LPN-based media.

LPNs [8] = conditions: ref [12], [15], [20]; cited from earlier work
From the text: as §1

[9] = buffer containing 150 mM KCl; ref [3]; cited from earlier work
From the text: These differences in the toxin affinity may b ...

LPN/POPC/DOPG (3 : 1) = assay: NMR titration binding isotherm with LPN/POPC/DOPG (3 : 1) nanodiscs
Description: (§2) The recombinant 44–243 fragment of the human apolipoprotein A1 with a N-terminal sequence of six His residues was used as an MSP protein. The purified MSP protein, obtained as described in [20], was mixed at a molar ratio of 1 : 75 with lipids in the presence of a detergent, sodium cholate (2 : 1 cholate/lipids molar ratio), and the mixture was incubated at 4 °C for 3 h. When using saturated lipids (DLPC, DLPG), the reaction temperature was kept not lower than 25 °C. Spontaneous LPN assembly was initiated by detergent sorption to the Bio-Beads™ resin (Bio-Rad, USA) for 1.5 h. Purification of the nanodiscs was performed on a Ni^2+ Sepharose 6 Fast Flow resin (GE Healthcare, USA) equilibrated with buffer A (20 mM Tris-HCl, 0.5 M NaCl, 1 mM NaN3, pH 8.0). After loading the reaction mixture, the resin was washed with a fivefold volume of buffer A. LPNs were eluted with buffer A containing 100 mM imidazole. The MSP concentration was determined spectrophotometrically by absorbance at λ = 280 nm. The LPN concentration was determined by assuming that each nanodisc contained two MSP molecules.
(§3) NMR spectra were acquired at 40–45 °C on AVANCE -700 and AVANCE -III-800 spectrometers (Bruker, Germany) equipped with cryogenically cooled triple-resonance probes at the proton resonance frequencies of 700 and 800 MHz, respectively.
(§4) To measure the isotherms of the toxins binding to LPNs and MSP molecules, the VSTx1 and NT II samples ([…], 10 mM Tris-Ac, pH 7.0) were titrated with solutions of nanodiscs (70 μM) of various lipid compositions or with a MSP solution (0.7 mM). The 1D 1H-NMR spectrum was acquired at each point. A data analysis was performed assuming that the intensity of the observed NMR signals of a peptide is proportional to its equilibrium concentration in solution ([P]free). The binding curves were fitted either to the partition equilibrium equation (1) or to the Langmuir isotherm equation (2), taking into account the dilution of the initial samples upon titration:
(§5) where [LPN/lipid] is the LPN concentration (assuming that one nanodisc contains two MSP molecules) or the lipid concentration (assuming that one nanodisc contains 150 lipid molecules), [P]boundis the concentration of a peptide bound to LPN ([P]0 = [P]free+ [P]bound), Kpis the partition coefficient, n is the number of binding sites for a peptide on the nanodisc surface, and Knis the affinity constant of the peptide to the binding site on the nanodisc surface.

LPN/POPC = assay: NMR titration binding isotherm with LPN/POPC nanodiscs
Description: as §2, §3, §4, §5

[10] = test system: nanodisc surface or MSP molecule; assay: Langmuir analysis of VSTx1 binding to sites on nanodisc surface or MSP; conditions: Langmuir isotherm (eq. 2); range over LPN/POPC, LPN/POPC/DOPG and MSP
Description: as §4, §5

[11] = ref [31]; cited from earlier work
From the text: (§6) The VSTx1 toxin is a small β-structured peptide stabilized by three disulfide bonds which form a “cysteine knot” (Fig. 1). […] According to current data, VSTx1 inhibits the voltage-dependent activation of K^+ channels and uses “membrane catalysis” mechanisms when forming a complex with the voltage-sensing domain of the channel.

K^+ channels = conditions: ref [3]; cited from earlier work
From the text: as §6

[12] = test system: MSP (44-243 fragment of human apolipoprotein A1); assay: NMR titration binding isotherm with MSP
Description: as §2, §3, §4, §5

[13] = Superdex-200, 10 mM Tris-HCl, 0.1 M NaCl
[14] = Langmuir isotherm (eq. 2), 10 mM Tris-Ac, pH 7.0, 40–45 °C
[15] = maximum ("up to"), Langmuir isotherm
[16] = partition equilibrium (eq. 1), lipid concentration as non-aqueous phase (150 lipids per nanodisc), 10 mM Tris-Ac, pH 7.0, 40–45 °C, no added salt

arenicin-2 (RWCVYAYVRIRGVLVRYRRCW; not fully specified; ends and bridges not checked; UniProt Q5SC59 182-202, looked up) [Ar2, antimicrobial peptide (21 AA) from coelomocytes of the polychaete lugworm Arenicola marina]
relative hydrophobicity [1]: most hydrophobic among the studied peptides | binding to DOPG liposomes [2]: binds with high affinity | size of large complexes (LPNs [3]; Ar2/LPN sample supernatants, Superdex-200, pH 7.4, diameter = 2 RH): ~ 15 nm | nanodisc disruption (LPNs [3]; [13]): causes nanodisc fusion, accompanied by the release of MSP molecules | nanodisc disruption (LPNs [3]; Superdex-200, 10 mM Tris-HCl, 0.1 M NaCl, listed as arenicin-2): disintegrates LPNs | LPN solution turbidity (LPNs [4]; equimolar concentrations (Ar2/LPN = 1 : 1) and higher): opaque | LPN solution turbidity (LPNs [4]; small peptide concentrations added): strongly opalescent | bilayer micellization ([5]; at high concentrations, ref [24]): probably causes bilayer micellization | interaction with membranes containing negatively charged lipids ([5]; ref [18]): interacts selectively with membranes containing negatively charged lipid molecules and creates in them oligomeric pores | interaction with POPC vesicles/liposomes [6]: does not interact

antiamoebin I
upper limit of solubility in water [7]: 30 µM | complex formation with LPNs (LPNs [8]): formation of stable complexes

VSTx1 (GSECGKFMWKCKNSNDCCKDLVCSSRWKWCVLASPF; not fully specified; ends and bridges not checked)
Kp, partition coefficient, vesicles of POPE/POPG (3 : 1) [9]: ~ 2 × 10^3 × 10^3 M^-1 | Kn, affinity constant of the peptide to the binding site on the LPN surface (LPN/POPC/DOPG (3 : 1); [14]): 0.13 ± 0.02 ×10^6·M^-1 | n, number of binding sites on the LPN surface (LPN/POPC/DOPG (3 : 1); [14]): 34.5 ± 3.9 | binding to LPNs (LPN/POPC/DOPG (3 : 1); POPC/DOPG, 3 : 1, 1D 1H-NMR titration, 10 mM Tris-Ac, pH 7.0): effectively binds; also recorded: interacts effectively with LPNs containing anionic lipids | lipid molecules per toxin molecule (LPN/POPC/DOPG (3 : 1); at ~ 35 binding sites per nanodisc): ~ 4 lipid molecules per toxin molecule | number of binding sites with negatively charged lipids added (LPN/POPC/DOPG (3 : 1); [15]): ~ 35 | Kp(LPN, MSP×2), partition coefficient (LPN/POPC/DOPG (3 : 1); partition equilibrium (eq. 1), LPN concentration as non-aqueous phase, 10 mM Tris-Ac, pH 7.0, 40–45 °C, no added salt): 2.68 ± 0.24 ×10^6·M^-1 | Kp(Lipids), partition coefficient (LPN/POPC/DOPG (3 : 1); [16]): 17.8 ± 1.6 ×10^3·M^-1 | Kn, affinity constant of the peptide to the binding site on the LPN surface (LPN/POPC; [14]): 0.06 ± 0.01 ×10^6·M^-1 | n, number of binding sites on the LPN surface (LPN/POPC; [14]): 9.6 ± 1.5 | binding to LPNs (LPN/POPC; POPC, 1D 1H-NMR titration, 10 mM Tris-Ac, pH 7.0): lower affinity; also recorded: interacts less efficiently | toxin molecules bound per nanodisc containing POPC (~ 150 molecules) (LPN/POPC; [15]): ~ 10 toxin molecules | Kp(LPN, MSP×2), partition coefficient (LPN/POPC; partition equilibrium (eq. 1), LPN concentration as non-aqueous phase, 1D 1H-NMR titration, 10 mM Tris-Ac, pH 7.0, 40–45 °C, no added salt): 0.39 ± 0.02 ×10^6·M^-1 | Kp(Lipids), partition coefficient (LPN/POPC; [16]): 2.6 ± 0.2 ×10^3·M^-1 | Kn, affinity to the sites on the nanodisc surface or on a MSP molecule [10]: 50000 to 130000 M⁻¹ | nanodisc disruption (LPNs [3]; [13]): does not cause their disruption; also recorded: no nanodisc disruption | diameter of unbound toxin (LPNs [3]; Superdex-200, 10 mM Tris-HCl, 0.1 M NaCl, pH 7.4, diameter = 2 RH): ~ 2.0 nm | affinity for interface of phospholipid membranes containing anionic lipids [11]: considerable affinity | interaction with zwitterionic lipid membranes [11]: weakly interacts | membrane lytic activity [11]: no membrane lytic activity | voltage-dependent activation of K^+ channels (K^+ channels): inhibits | interaction with MSP ([12]; MSP without lipids, 1D 1H-NMR titration, 10 mM Tris-Ac, pH 7.0): weakly interacts; also recorded: weak interaction | Kn, affinity constant of the peptide to the binding site ([12]; MSP×2, no lipids, Langmuir isotherm (eq. 2), 10 mM Tris-Ac, pH 7.0, 40–45 °C): 0.05 ± 0.02 ×10^6·M^-1 | Kp(LPN, MSP×2), partition coefficient ([12]; MSP×2, no lipids, partition equilibrium (eq. 1), titration with 0.7 mM MSP, 10 mM Tris-Ac, pH 7.0, 40–45 °C): 0.10 ± 0.01 ×10^6·M^-1 | VSTx1 molecules bound per MSP molecule ([12]; in the absence of lipids, each MSP molecule): up to 1.6 VSTx1 molecules
